From patent US9976183B2, “Biomarkers for cancers responsive to modulators of HEC1 activity” (TAIVEX THERAPEUTICS CORPORATION, priority 2011, dated 2018)
Where “and” joins values, the source holds several entries; their conditions need not be identical. Equal values may be shown once.

Columns and labels:
Assay type in all cases: cell-based
MB-468 = experiment: Synergy of Hec1 inhibitor with cytotoxic drug (combination index, MTS)
Description: (§1) Synergy: GI50s for selected drugs were determined and used to calculate a concentration ratio for use synergy assays with Hec1 inhibitors. Cells were treated with drugs 24 hours after being seeded in appropriate seeding numbers into 96 well plates containing low glucose DME with 10% FBS. […] Cell viability was determined by MTS assay using a CellTiter 96® Aqueous non-radioactive cell proliferation assay system (Promega, Madison, Wis. 53711 USA) according to the manufacturer's instructions. Optical density was determined using a Bio-Tek 340 spectrophotometer (Bio-Tek, Winooski, Vt. 05404) and were then processed using Excel (Microsoft, Redmond, Wash. 98052-7329) and GraphPad Prism 5 linear regression software (GraphPad Software, La Jolla, Calif. 92037 USA) to determine concentration-response curves for calculating relative GI50s. Synergy was determined by calculating a combination index value using the formula CI (combination index)=(CA,X/ICx,A)+(CB,X/ICx,B), where CA,X and CB,X are the concentrations of drug A and drug B used in combination to achieve x % drug effect. ICx,A and ICx,B are the concentrations for single agents to achieve the same effect.
(§2) Hec1 inhibitor-responsive cancer cells used for screening were treated with a mixture of Hec1 inhibitor and select anti-cancer drug at appropriate concentration ratios and evaluated for cell viability.

K562 [1] = experiment: as above
Description: as §1, §2

MB-231 = experiment: as above
Description: as §1, §2

Huh7 [2] = experiment: as above; set-up: key to Combination Index: CI = (CA,X/ICx,A)+(CB,X/ICx,B) at x% drug effect
Description: as §1, §2

Hep3B = experiment: as above; set-up: key to Combination Index: CI = (CA,X/ICx,A)+(CB,X/ICx,B) at x% drug effect
Description: as §1, §2

K562R = experiment: Drug sensitivity, MTS assay, drug resistant cell line; settings: Gleevec resistant myelogenous leukemia
Description: (§3) Drug sensitivity: Cell lines were screened for drug sensitivity by treatment with specified drugs 24 hours after seeding in appropriate seeding numbers into 96 well plates containing low glucose DME with 10% FBS. The drug was added to the plate in triplicate wells, and the cells are incubated in drug treated medium for 96 hours before cell viability was determined by MTS assay using CellTiter 96® Aqueous non-radioactive cell proliferation assay system (Promega, Madison, Wis. 53711 USA). The MTS assay was performed according to the manufacturer's instructions. Optical density was measured using a Bio-Tek 340 spectrophotometer (Bio-Tek, Winooski, Vt. 05404) and optical readings were then processed in Excel (Microsoft, Redmond, Wash. 98052-7329) and GraphPad Prism 5 linear regression software (GraphPad Software, La Jolla, Calif. 92037 USA) to determine concentration-response curves for calculating relative GI50s. […] The % growth inhibition of the test drug on cells were calculated as: [1−(Test Value)/(Control Value)]×100; these values were used to plot concentration-response curves, and then analyzed with linear regression software.

NCI/ADR-RES [3] = experiment: as above; settings: multi-drug resistant uterine sarcoma
Description: as §3

Huh7 [4] = experiment: Drug sensitivity, MTS cell viability assay (GI50); settings: Huh7, 96 hours, MTS
Description: as §3

MDA-MB-231 = experiment: Drug sensitivity, MTS cell viability assay (GI50)
Description: as §3

MDA-MB-468 = experiment: Drug sensitivity, MTS cell viability assay (GI50); settings: Homo sapiens, MDA-MB-468, 96 h
Description: as §3

K562 [5] = experiment: Drug sensitivity, MTS cell viability assay (GI50)
Description: as §3

[6] = test system: cells with mutated p53 (MDA-MB-231); experiment: p53 siRNA knockdown, sensitivity to Hec1 inhibitor (MTS); settings: siRNA directed to p53 (sip53)
Description: (§4) Gene silencing: Cells were plated into the wells of 96 well plates in appropriate cell numbers and transfected by the siPort NeoFx transfection method (Life Technologies, Carlsbad, Calif. 92008 USA) according to manufacturer instructions, maintained for 24 hours, then treated with drug. Cells were incubated in drug treated medium for 48 hours then analyzed by MTS assay. Control siRNA Life Technologies, Carlsbad, Calif. 92008; Cell Signaling Technology, Danvers, Mass. 01923 USA; and Santa Cruz Biotechnology, Santa Cruz, Calif. 95060 USA), Rb siRNA (#1: Life Technologies, Carlsbad, Calif. 92008 USA; #2: Santa Cruz Biotechnology, Santa Cruz, Calif. 95060 USA) and p53 siRNA (#1: Cell Signaling Technology, Danvers, Mass. 01923 USA; #2: Cell Signaling Technology, Danvers, Mass. 01923 USA) were used. Cells were treated with drugs 24 hours after seeding and incubated with the drugs for 48 hours before MTS assay. The MTS assay was performed according to the manufacturer's instructions (Promega, Madison, Wis. 53711 USA).
(§5) Cells were analyzed for viability and cellular sensitivity expressed in GI50 (nM). RNA from transfected cells were also analyzed for p53 RNA level by quantitative real time PCR. […] Cellular sensitivity is expressed as percent growth inhibition relative to non-drug-treated cells. […]

[7] = test system: wild-type p53 cells (A549, HCT116); experiment: as above; settings: siRNA directed to p53 (sip53)
Description: as §4, §5

NCI/ADR-RES [8] = experiment: Synergy of Hec1 inhibitor with cytotoxic drug (combination index, MTS); settings: in combination with paclitaxel
Description: as §1
Drugs that can target pathways unreached by other current anti-cancer drugs have even better clinical potential to be incorporated into current therapeutic regimens. […] Hec1 inhibitor-responsive cancer cells used for screening were treated with a mixture of Hec1 inhibitor and select anti-cancer drug at appropriate concentration ratios and evaluated for cell viability. […] Table 9 summarizes the results of synergism studies on a number of cancer derived cell lines treated with Hec1 inhibitor 110001 in combination cytotoxic drugs.

[9] = in combination with doxorubicin
[10] = in combination with Taxol (paclitaxel)
[11] = in combination with topotecan (187.20 nM), ratio used 3.74

For `COc1ccc(Oc2cc(C)c(-c3csc(NC(=O)c4ccncc4)n3)c(C)c2)cc1` [compound 101001, N-(4-(4-(4-methoxyphenoxy)-2,6-dimethylphenyl)thiazol-2-yl)isonicotinamide], the Synergy (MB-468; [9]) was “Yes”, the Synergy (MB-468; in combination with topotecan) was “Yes” and the Synergy (K562 [1]; [9]) was “Yes”. For the same molecule, the Synergy (K562 [1]; in combination with paclitaxel) was “Yes”, the Synergy (MB-231; in combination with paclitaxel) was “Yes” and the Synergy (MB-231; in combination with topotecan) was “Yes”. The Synergy (Huh7 [2]; in combination with KXO1) was “Additive”, the Synergy (Huh7 [2]; [9]) was “Yes” and the Synergy (Huh7 [2]; in combination with paclitaxel) was “Yes”. The Synergy (Huh7 [2]; in combination with sorafenib) was “Antagonistic”, the Synergy (Hep3B; in combination with sorafenib) was “Antagonistic” and the GI50 (K562R; Homo sapiens, K-562R) was 0.0296 µM. It also gave a GI50 (NCI/ADR-RES [3]; Homo sapiens) of 0.0286 µM, a GI50 (Huh7 [4]; Homo sapiens, Huh-7, 96 h) of 0.0843 µM and a GI50 (MDA-MB-231; Homo sapiens, MDA-MB-231, 96 h) of 0.0433 µM. The GI50 (MDA-MB-231; MDA-MB-231, 96 hours, listed as 110001) was 0.0425 µM, the GI50 (MDA-MB-468) was 0.0336 µM and the GI50 (K562 [5]; K562, 96 hours, listed as 110001) was 0.0406 µM and 0.0438 µM. For the same molecule, the “effect of p53 silencing on cellular sensitivity (GI50)” value [6] was “not observed” and the “effect of p53 silencing on cellular sensitivity (GI50)” value [7] was “decreased GI50”.

With `COCCOc1cnc(Sc2cc(C)c(-c3csc(NC(=O)c4ccncc4)n3)c(C)c2)cn1` [compound 110095, N-(4-(4-(5-(2-methoxyethoxy)pyrazin-2-ylthio)-2,6-dimethylphenyl)thiazol-2-yl)isonicotinamide] the “Combination Index” value (NCI/ADR-RES [8]) was 0.82, the Synergy (NCI/ADR-RES [8]) was “Yes” and the “Combination Index” value (MB-468; in combination with Taxol) was 1.08. The “Combination Index” value (MB-468; [9]) was 0.87, the Synergy (MB-468; [9]) was “Yes” and the “Combination Index” value (MB-468; in combination with topotecan) was 0.88. The Synergy (MB-468; in combination with topotecan) was “Yes”, the “Combination Index” value (K562 [1]; [10]) was 1.64 and the “Combination Index” value (K562 [1]; [9]) was 0.49. For the same molecule, the Synergy (K562 [1]; [9]) was “Yes”, the “Combination Index” value (K562 [1]; in combination with topotecan) was 1.38 and the “Combination Index” value (MB-231; [10]) was 1.21. For the same molecule, the “Combination Index” value (MB-231; [9]) was 1.26, the “Combination Index” value (MB-231; in combination with topotecan) was 0.71 and the Synergy (MB-231; in combination with topotecan) was “Yes”. For the same molecule, the “Combination Index” value (Huh7 [2]; in combination with KX01 (KXO1)) was 0.96, the “Combination Index” value (Huh7 [2]; in combination with KX01 (KXO1), listed as 0095) was 1.36 and the Synergy (Huh7 [2]; in combination with KXO1) was “Additive”. The “Combination Index” value (Huh7 [2]; [10]) was 0.65, the “Combination Index” value (Huh7 [2]; in combination with Taxol (paclitaxel), listed as 0095) was 1.05 and the “Combination Index” value (Huh7 [2]; [9]) was 0.76. For the same molecule, the Synergy (Huh7 [2]; in combination with paclitaxel) was “Yes”, the “Combination Index” value (Huh7 [2]; in combination with sorafenib) was 1.05 and the Synergy (Huh7 [2]; in combination with sorafenib) was “Additive”. For the same molecule, the “Combination Index” value (Huh7 [2]; in combination with sorafenib, listed as 0095) was 0.96, the “Combination Index” value (Huh7 [2]; in combination with topotecan) was 0.75 and the Synergy (Huh7 [2]; in combination with topotecan (50.91 nM)) was “Yes”. The “Combination Index” value (Huh7 [2]; [11]) was 0.76, the Synergy (Huh7 [2]; [11]) was “Yes” and the “Combination Index” value (Hep3B; in combination with KX01) was 2.79. For the same molecule, the “Combination Index” value (Hep3B; in combination with Taxol) was 2.40, the “Combination Index” value (Hep3B; [9]) was 2.27 and the “Combination Index” value (Hep3B; in combination with sorafenib) was 1.20. For the same molecule, the “Combination Index” value (Hep3B; in combination with topotecan) was 1.48, the GI50 (K562R) was 0.00727 µM and the GI50 (K562R; Homo sapiens, K-562R) was 0.0104 µM. For the same molecule, the GI50 (NCI/ADR-RES [3]; Homo sapiens) was 0.0195 µM, the GI50 (NCI/ADR-RES [3]) was 0.0104 µM and the GI50 (Huh7 [4]; Homo sapiens, Huh-7, 96 h) was 0.0489 µM. For the same molecule, the GI50 (Huh7 [4]) was 0.035 µM, the GI50 (MDA-MB-231; Homo sapiens, MDA-MB-231, 96 h) was 0.0165 µM and the GI50 (MDA-MB-468) was 0.0211 µM. It also gave a GI50 (K562 [5]; Homo sapiens, K562, 96 h) of 0.0282 µM.
